Experimental data: PubChem BioAssay AID2253 (Southern Research Specialized Biocontainment Screening …, 2010)

These molecules were tested on THP-1 viability, CellTiter-Glo luminescence, 72 h (assay: human monocytic cell viability reduction – S. typhimurium screen hits, cytotoxicity control for Salmonella PhoP regulon inhibitors, dose response (AID 2253)).

In order of rising EC50:
1. CCCCCCCCCCCCCCCCn1cc[n+](C)c1  0.37 µM
2. Nc1c(Cl)ncnc1N/N=C/c1ccccn1  0.47 µM
3. CCCC(=O)NC(c1ccccc1)c1ccc2cccnc2c1O (centres undefined)  0.59 µM
4. CCCCCCCCCCCCCCCC[n+]1cccc(C(=O)N(CC)CC)c1  0.64 µM
5. CC[n+]1c(/C=C/C=C/c2ccc(N(C)C)cc2)sc2ccccc21  1.5 µM
6. CCCOc1ccc(C(=O)C(CCC(CNCC)C(=O)c2ccc(OCCC)cc2)CNCC)cc1 (centres undefined)  1.58 µM
7. Cc1cc(C)c2nc(NNC(=O)c3ccc(S(=O)(=O)N4CCc5ccccc5C4)cc3)sc2c1  1.69 µM
8. Oc1cccc2ccc(Nc3ccccn3)nc12  2.16 µM
9. Cc1ccc(C(=O)Sc2cccccc2=O)cc1  2.64 µM
10. Oc1ccc(/C=N/NC(=S)Nc2cccnc2)c(O)c1  3.21 µM
11. Cc1ccc(N=Nc2ccc(O)c(/C=N\NC(=O)c3ccc(N)cc3)c2)cc1C  3.29 µM
12. Cc1cc(/C=N/n2c(COc3ccccc3)nc3ccccc3c2=O)c(O)c([N+](=O)[O-])c1  4.71 µM
13. O=CN/N=C/c1c(O)ccc2ccccc12  5.18 µM
14. OC(CNCCc1ccccc1)COc1ccc(OCC(O)CNCCc2ccccc2)cc1 (centres undefined)  6 µM
15. CCc1ccc(-c2nn(-c3ccccc3)cc2CSC(=N)N)cc1  6.52 µM
16. O=C1c2ccccc2NC(c2ccc(-c3cccc([N+](=O)[O-])c3)o2)N1O (centres undefined)  6.61 µM
17. CCCC(=O)NC(c1cccs1)c1cc([N+](=O)[O-])c2cccnc2c1O (centres undefined)  7.09 µM
18. CNc1nc(-c2ccccn2)nnc1-c1ccccc1  8.38 µM
19. Oc1c(CN2CCc3ccccc3C2)cc(Cl)c2cccnc12  8.71 µM
20. O=C(NC(c1ccc(Cl)cc1)c1c(O)ccc2ccccc12)c1ccccc1 (centres undefined)  8.91 µM
21. CN(C)CCCNc1cc(C(C)(C)C)nc2c(-c3ccccc3)cnn12  9.26 µM
22. O=[N+]([O-])c1ccc(-n2nnnc2-c2ccccc2)c([N+](=O)[O-])c1  10.1 µM
23. CC(=O)NC(c1cccs1)c1cc([N+](=O)[O-])c2cccnc2c1O (centres undefined)  10.1 µM
24. Cc1ccc(C=Nc2ccccc2C(N)=O)s1  10.8 µM
25. Oc1cccc2ccc[n+](CC(O)Cn3c4ccccc4c4ccccc43)c12 (centres undefined)  11.1 µM
26. CC(=O)n1cc(/C=N/NC(=O)c2sc(C)nc2C)c2ccccc21  11.6 µM
27. CCOc1ccc(CNc2ccc(N3CCCC3)cc2)cc1  11.8 µM
28. NNC(=O)c1cc2ccccc2cc1O  11.9 µM
29. Cc1cc(/C=N/n2cnnc2)c(C)n1-c1ccc(OCc2ccc(F)cc2)cc1  12.7 µM
30. COc1c(N2CCN(C(=S)NCc3ccccc3)C(C)C2)c(F)cc2c(=O)c(C(=O)O)cn(C3CC3)c12 (centres undefined)  15.4 µM
31. Cc1ccc(Nc2nc(N)c3ccccc3n2)cc1Cl  16.3 µM
32. Cc1cc2cc(CCNC(=O)c3cccs3)c(=O)[nH]c2cc1C  17.2 µM
33. O=C(CCN1CCc2ccccc2C(c2ccccc2)C1)c1ccc2c(c1)OCCO2 (centres undefined)  18 µM
34. Cc1ccccc1NC(=O)CCC(=O)N/N=C/c1cc([N+](=O)[O-])ccc1O  19.5 µM
35. Oc1ccc(NCc2ccccc2OCc2ccccc2F)cc1  19.9 µM
36. c1ccc(CN2CCN(c3nc(NCc4ccco4)c4ccccc4n3)CC2)cc1  20.6 µM
37. Clc1cc(Br)ccc1OCCCNCc1ccccc1  22.8 µM
38. Cc1ccccc1Cn1c(=N)n(CC(=O)c2ccco2)c2ccccc21  22.8 µM
39. CCCn1c(NCc2c[nH]c3ccccc23)nc2ccccc21  22.9 µM
40. Nc1nc2ccccc2n1Cc1ccc(Cl)c(Cl)c1  24.4 µM
41. Cc1ccccc1OCCCCCn1ccnc1  24.4 µM
42. CCNC(=S)NNC(=O)c1ccccn1  25.5 µM
43. CCOC(=O)Cc1csc(NC(=O)NC2(C(F)(F)F)Oc3cc(Cl)c(Cl)cc3O2)n1  26 µM
44. O=C(NNc1c2ccccc2nc2ccccc12)c1ccccc1O  28.3 µM
45. CCn1c(SCC(=O)Nc2ccc3c(c2)oc2ccccc23)nnc1-c1ccc(N)cc1  29.9 µM
46. COc1ccc(CCNC(=S)Nc2cccc3ccccc23)cc1  31.5 µM
47. CN1/C(=C\C=N\NC(=O)c2ccccc2Br)C(C)(C)c2ccccc21  32.2 µM
48. COc1ccc(NC2=NC3(CCCCC3)N=C(N)N2)cc1  35.1 µM
49. Clc1c(OCCCn2ccnc2)ccc2ccccc12  35.2 µM
50. CN(C)c1ccc(O)c2c1CC1CC3C(N(C)C)C(=O)C(C(N)=O)=C(O)[C@@]3(O)C(=O)C1=C2O (some centres undefined)  36.6 µM
51. CCCCOc1ccc(Cc2cnc(N)nc2N)cc1  41.5 µM
52. CCCCOc1ccc(S(=O)(=O)NNC(=O)C2Cc3c(ccc4ccccc34)O2)cc1 (centres undefined)  42.6 µM
53. Oc1ccc(C=Nc2cccc3ncccc23)c(O)c1  43.3 µM
54. S=C(NCc1ccncc1)Nc1ccc(Cl)c(Cl)c1  46.2 µM
55. CC(C)(C)c1ccc(C(=O)NC(=S)NCc2cccnc2)cc1  46.5 µM
56. CCn1c(SCc2nc3scc(-c4ccccc4)c3c(=O)[nH]2)nnc1-c1cccs1  46.6 µM
57. O=C(NCCNc1ccc([N+](=O)[O-])cc1C(F)(F)F)c1cccc(F)c1  47.5 µM
58. O=C1c2cccc(OCC(=O)N3N=C(c4cccs4)CC3c3ccc(F)cc3)c2CCN1Cc1cccnc1 (centres undefined)  47.9 µM
59. c1csc(C2Nc3cccc4cccc(c34)N2)c1  48.8 µM
